# Activity calls are given as the source filed them.
# What was measured:
# [1] = target: Metabotropic glutamate receptor 3 (Rattus norvegicus, UniProt P31422); assay: mGlu3 NAM potency via calcium readout, dose response, mGlu3 NAM project, TREx293 cells, Galpha15, calcium flux (AID 651840); format: functional
# Beta-galactosidase = Beta-galactosidase (Escherichia coli, UniProt Q8VNN2); assay: Dose response counterscreen for EBI2 assay utilizing the enzyme, b-galactosidase.; format: functional
# [2] = A Cell-Based Confirmatory Screen for Compounds that Inhibit VEEV, TC-83 (3).; format: functional
# [3] = target: T1, Beta-2 adrenergic receptor (Homo sapiens, UniProt P07550); assay: Dose response for HTS for Beta-2AR agonists via FAP method from Powderset3.; format: functional
# T1 sequence (P07550 whole entry): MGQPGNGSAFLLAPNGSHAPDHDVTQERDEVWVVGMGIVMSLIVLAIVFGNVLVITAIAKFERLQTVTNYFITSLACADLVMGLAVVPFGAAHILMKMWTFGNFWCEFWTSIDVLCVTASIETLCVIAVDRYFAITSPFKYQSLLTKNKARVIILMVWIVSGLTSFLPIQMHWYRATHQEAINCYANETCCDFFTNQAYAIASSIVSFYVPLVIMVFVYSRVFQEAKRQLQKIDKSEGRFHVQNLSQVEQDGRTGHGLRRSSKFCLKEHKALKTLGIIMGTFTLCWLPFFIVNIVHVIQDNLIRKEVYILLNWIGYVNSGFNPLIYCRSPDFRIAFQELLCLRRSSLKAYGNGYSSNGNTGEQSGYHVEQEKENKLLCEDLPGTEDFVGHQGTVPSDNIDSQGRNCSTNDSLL
# [4] = target: T1, Beta-2 adrenergic receptor; assay: beta2AR agonists driving receptor internalization, dose response, cell-based, FAP fluorogen, flow cytometry, cherry pick 1 (AID 588763); format: functional
# [5] = NIH:OVCAR-3 ovarian cancer cell cytotoxicity, dose response, PAX8 inhibitor project, plate reader, dry powder samples (AID 743044); format: functional, cell-based
# Paired box protein Pax-8 = Paired box protein Pax-8 (Homo sapiens, UniProt Q06710); assay: inhibitors of PAX8-driven TPO luciferase reporter, dose response, RMG-I cells, cherry-pick (AID 687027); format: functional, cell-based;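 note: luciferase reporter driven by Pax8 target thyroperoxidase promoter measured by SteadyGlo luminescence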
# Sequence of Paired box protein Pax-8 (Q06710 whole entry): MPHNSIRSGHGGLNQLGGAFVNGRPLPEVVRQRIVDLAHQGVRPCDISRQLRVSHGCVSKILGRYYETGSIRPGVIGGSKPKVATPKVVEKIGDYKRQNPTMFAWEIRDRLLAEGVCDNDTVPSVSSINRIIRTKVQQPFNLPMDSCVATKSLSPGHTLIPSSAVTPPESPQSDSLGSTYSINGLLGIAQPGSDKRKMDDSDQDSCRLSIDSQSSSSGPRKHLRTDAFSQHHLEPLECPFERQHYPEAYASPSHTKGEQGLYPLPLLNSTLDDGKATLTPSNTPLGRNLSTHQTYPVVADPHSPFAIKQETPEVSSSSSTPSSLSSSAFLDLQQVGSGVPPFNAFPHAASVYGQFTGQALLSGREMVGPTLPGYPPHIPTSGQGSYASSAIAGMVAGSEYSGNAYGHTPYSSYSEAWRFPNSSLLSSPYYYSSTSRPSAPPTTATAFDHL
# [6] = cytotoxicity in OVCAR8 ovarian cancer cells, dose response, PAX8 project, cell-based, plate reader, dry powder samples (AID 743197); format: functional; conditions: OVCAR-8
# [7] = A2780 ovarian cancer cell cytotoxicity, dose response, cytotoxicity control, plate reader, dry powder samples (AID 743046); format: functional, cell-based
# Protein skinhead-1 = target: T2, Protein skinhead-1 (Caenorhabditis elegans, UniProt P34707); format: functional
# T2 sequence (P34707 whole entry): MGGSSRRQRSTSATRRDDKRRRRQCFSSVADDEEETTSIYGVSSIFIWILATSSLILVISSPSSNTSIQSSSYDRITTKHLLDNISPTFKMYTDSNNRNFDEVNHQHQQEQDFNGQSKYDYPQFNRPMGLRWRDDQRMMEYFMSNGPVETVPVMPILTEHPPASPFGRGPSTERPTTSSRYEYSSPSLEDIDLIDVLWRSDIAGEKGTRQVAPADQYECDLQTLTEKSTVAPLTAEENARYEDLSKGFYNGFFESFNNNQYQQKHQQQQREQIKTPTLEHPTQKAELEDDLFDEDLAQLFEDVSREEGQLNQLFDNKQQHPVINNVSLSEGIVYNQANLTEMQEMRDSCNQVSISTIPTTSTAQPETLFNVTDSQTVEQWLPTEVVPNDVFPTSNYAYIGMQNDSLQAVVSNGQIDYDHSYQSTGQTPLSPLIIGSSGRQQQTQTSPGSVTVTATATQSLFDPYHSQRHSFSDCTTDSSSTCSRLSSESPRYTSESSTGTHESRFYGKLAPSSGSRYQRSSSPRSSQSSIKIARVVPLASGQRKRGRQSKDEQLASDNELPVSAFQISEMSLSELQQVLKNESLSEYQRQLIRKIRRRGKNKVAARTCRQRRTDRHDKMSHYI
# cells [8] = conditions: HEK293
# H9c2 = assay: cells; format: functional, cell-based; conditions: Rattus norvegicus, H9c2, Myocardium;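 note: confirmatory concentration-response retest of ultra-high-throughput screening hits for modulation of myocardial damage; cell death induced by hydrogen peroxide oxidative stress; compound pretreatment for 60 min then peroxide exposure for 2 h; potency is for protecting the cells against peroxide damage rather than for killing them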
# [9] = Counterscreen for […] of the human trace amine associated receptor 1 (TAAR1): Fluorescence-based cell-based high throughput dose response assay to identify nonselective Ga16 agonists.; format: functional
# [10] = target: T3, Trace amine-associated receptor 1 (Homo sapiens, UniProt Q96RJ0); assay: Fluorescence-based cell-based high throughput dose response assay to identify antagonists of the human trace amine associated receptor 1 (TAAR1).; format: functional
# T3 sequence (Q96RJ0 whole entry): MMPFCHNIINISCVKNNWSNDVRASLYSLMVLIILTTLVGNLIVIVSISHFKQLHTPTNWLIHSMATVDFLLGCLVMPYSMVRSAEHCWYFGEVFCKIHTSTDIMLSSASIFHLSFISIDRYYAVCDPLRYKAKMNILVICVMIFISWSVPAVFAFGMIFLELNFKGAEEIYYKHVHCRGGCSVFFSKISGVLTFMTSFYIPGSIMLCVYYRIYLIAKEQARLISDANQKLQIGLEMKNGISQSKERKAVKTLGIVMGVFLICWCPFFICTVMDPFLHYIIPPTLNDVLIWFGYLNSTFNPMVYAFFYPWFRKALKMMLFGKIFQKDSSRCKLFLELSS
# [11] = Counterscreen for antagonists of the human trace amine associated receptor 1 (hTAAR1): Fluorescence-based cell-based high throughput dose response assay to identify nonselective Ga16 antagonists.; format: functional
# [12] = target: T3, Trace amine-associated receptor 1; assay: Counterscreen for antagonists of the human trace amine associated receptor 1 (hTAAR1): Fluorescence-based cell-based high throughput dose response assay to identify TAAR1 Agonists.; format: functional
# [13] = Luminescence Cell-Based Dose Confirmation HTS to Identify Inhibitors of Platelet Dense Granule Release. [Related pubchem assays: 1663 (Primary HTS), 1678 (Summary of Project)]; format: functional
# Galanin receptor type 3 = Galanin receptor type 3 (Homo sapiens, UniProt O60755); assay: Fluorescence-based cell-based primary high throughput dose response assay to identify antagonists of the Galanin Receptor 3 (GalR3).; format: functional
# Sequence of Galanin receptor type 3 (O60755 whole entry): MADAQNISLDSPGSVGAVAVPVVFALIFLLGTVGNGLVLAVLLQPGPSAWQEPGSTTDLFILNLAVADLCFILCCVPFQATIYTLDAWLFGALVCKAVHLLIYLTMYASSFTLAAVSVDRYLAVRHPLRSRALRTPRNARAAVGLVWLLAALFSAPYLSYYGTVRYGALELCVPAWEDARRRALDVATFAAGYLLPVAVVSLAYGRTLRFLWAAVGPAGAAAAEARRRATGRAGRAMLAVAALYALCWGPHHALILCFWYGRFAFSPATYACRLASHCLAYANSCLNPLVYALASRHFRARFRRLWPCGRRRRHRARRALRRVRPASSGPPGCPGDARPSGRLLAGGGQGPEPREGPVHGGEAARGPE
# [14] = target: Luciferin 4-monooxygenase (Photinus pyralis, UniProt P08659); assay: firefly luciferase enzyme inhibitors, dose response, biochemical, luminescence (AID 1891)
# Sequence of Luciferin 4-monooxygenase (P08659 whole entry): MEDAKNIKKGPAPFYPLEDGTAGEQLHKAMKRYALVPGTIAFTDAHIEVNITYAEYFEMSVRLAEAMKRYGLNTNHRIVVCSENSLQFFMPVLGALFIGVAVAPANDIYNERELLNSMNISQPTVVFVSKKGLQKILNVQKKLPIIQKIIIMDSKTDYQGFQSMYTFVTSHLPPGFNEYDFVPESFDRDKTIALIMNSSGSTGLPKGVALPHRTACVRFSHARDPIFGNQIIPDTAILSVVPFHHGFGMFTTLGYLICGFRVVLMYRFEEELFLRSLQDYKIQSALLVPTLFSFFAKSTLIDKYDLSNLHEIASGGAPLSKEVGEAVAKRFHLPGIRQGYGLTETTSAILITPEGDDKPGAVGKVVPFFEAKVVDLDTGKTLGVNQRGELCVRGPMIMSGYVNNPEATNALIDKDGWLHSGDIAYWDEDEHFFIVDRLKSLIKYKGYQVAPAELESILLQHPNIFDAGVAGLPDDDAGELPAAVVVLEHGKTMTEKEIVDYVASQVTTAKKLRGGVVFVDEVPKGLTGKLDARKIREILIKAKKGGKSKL
# cells [15] = format: functional, cell-based; conditions: HEK-CNG
# [16] = Late-stage results from the probe development effort to identify antagonists of arginine vasopressin receptor 1a (AVPR1a): fluorescence-based cell-based dose response OXTR inhibition counterscreen assay.; format: functional
# Vasopressin V1b receptor = Vasopressin V1b receptor (Homo sapiens, UniProt P47901); assay: Late-stage results from the probe development effort to identify antagonists of arginine vasopressin receptor 1a (AVPR1a): fluorescence-based cell-based dose response AVPR1b inhibition counterscreen assay.; format: functional
# Sequence of Vasopressin V1b receptor (P47901 whole entry): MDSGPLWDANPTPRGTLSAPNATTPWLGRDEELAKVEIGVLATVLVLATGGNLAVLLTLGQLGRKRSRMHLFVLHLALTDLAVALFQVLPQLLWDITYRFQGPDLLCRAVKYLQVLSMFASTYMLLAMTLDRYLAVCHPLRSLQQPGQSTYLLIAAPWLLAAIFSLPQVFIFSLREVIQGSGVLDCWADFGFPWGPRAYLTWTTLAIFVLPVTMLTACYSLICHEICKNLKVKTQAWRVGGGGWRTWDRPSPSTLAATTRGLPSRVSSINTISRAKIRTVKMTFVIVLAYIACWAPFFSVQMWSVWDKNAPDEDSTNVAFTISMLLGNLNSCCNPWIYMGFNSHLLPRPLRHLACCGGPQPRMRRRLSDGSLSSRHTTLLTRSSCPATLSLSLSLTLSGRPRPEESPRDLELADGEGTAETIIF
# Vasopressin V2 receptor = Vasopressin V2 receptor (Homo sapiens, UniProt P30518); assay: Late-stage results from the probe development effort to identify antagonists of arginine vasopressin receptor 1a (AVPR1a): fluorescence-based cell-based dose response AVPR2 inhibition counterscreen assay.; format: functional
# Sequence of Vasopressin V2 receptor (P30518 whole entry): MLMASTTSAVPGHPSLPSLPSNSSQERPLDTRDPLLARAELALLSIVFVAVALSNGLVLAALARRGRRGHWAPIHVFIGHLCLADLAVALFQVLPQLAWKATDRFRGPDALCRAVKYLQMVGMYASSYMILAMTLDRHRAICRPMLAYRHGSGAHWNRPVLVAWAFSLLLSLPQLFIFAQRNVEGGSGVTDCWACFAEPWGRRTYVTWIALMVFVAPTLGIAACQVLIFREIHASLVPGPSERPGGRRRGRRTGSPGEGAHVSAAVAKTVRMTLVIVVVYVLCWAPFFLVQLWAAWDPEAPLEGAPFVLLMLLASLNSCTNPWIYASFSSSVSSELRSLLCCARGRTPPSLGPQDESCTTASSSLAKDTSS
# [17] = Late-stage results from the probe development effort to identify antagonists of arginine vasopressin receptor 1a (AVPR1a): fluorescence-based cell-based dose response AVPR1a inhibition assay.; format: functional
# [18] = target: T1, Beta-2 adrenergic receptor; assay: Dose response for HTS for Beta-2AR agonists via FAP method from Powderset2.; format: functional
# Vero = assay: Vero cell toxicity, dose response, cytotoxicity control, plate reader, cherry-pick samples (AID 687020); format: functional, cell-based; conditions: Chlorocebus sabaeus
# Sequence of Beta-galactosidase (Q8VNN2 whole entry): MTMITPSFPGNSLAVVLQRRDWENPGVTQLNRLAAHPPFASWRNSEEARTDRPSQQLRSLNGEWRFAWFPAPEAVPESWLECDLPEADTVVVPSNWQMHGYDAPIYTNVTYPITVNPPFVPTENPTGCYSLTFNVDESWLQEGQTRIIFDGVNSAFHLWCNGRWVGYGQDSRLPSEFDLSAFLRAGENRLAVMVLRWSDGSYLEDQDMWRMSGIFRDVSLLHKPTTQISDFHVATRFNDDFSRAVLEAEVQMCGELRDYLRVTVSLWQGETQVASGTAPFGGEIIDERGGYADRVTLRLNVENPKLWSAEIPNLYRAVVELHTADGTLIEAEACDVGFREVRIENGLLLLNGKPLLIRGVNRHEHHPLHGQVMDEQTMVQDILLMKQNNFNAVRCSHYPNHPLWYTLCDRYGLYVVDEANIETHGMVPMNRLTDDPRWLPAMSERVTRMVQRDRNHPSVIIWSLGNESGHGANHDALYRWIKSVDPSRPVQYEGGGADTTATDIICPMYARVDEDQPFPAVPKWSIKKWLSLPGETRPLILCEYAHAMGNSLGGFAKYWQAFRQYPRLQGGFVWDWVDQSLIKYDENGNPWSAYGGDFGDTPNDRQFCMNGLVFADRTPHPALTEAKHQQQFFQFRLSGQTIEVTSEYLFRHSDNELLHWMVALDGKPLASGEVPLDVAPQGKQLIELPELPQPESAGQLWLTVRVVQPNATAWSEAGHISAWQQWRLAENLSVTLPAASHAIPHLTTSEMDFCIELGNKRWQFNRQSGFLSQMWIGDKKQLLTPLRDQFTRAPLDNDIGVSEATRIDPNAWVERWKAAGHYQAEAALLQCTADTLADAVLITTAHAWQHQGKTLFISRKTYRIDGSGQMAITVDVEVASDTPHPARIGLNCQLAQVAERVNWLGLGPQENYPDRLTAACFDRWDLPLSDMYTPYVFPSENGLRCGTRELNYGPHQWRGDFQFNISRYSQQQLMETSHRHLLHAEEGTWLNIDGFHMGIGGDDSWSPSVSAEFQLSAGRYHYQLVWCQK
# Sequence of Metabotropic glutamate receptor 3 (P31422 whole entry): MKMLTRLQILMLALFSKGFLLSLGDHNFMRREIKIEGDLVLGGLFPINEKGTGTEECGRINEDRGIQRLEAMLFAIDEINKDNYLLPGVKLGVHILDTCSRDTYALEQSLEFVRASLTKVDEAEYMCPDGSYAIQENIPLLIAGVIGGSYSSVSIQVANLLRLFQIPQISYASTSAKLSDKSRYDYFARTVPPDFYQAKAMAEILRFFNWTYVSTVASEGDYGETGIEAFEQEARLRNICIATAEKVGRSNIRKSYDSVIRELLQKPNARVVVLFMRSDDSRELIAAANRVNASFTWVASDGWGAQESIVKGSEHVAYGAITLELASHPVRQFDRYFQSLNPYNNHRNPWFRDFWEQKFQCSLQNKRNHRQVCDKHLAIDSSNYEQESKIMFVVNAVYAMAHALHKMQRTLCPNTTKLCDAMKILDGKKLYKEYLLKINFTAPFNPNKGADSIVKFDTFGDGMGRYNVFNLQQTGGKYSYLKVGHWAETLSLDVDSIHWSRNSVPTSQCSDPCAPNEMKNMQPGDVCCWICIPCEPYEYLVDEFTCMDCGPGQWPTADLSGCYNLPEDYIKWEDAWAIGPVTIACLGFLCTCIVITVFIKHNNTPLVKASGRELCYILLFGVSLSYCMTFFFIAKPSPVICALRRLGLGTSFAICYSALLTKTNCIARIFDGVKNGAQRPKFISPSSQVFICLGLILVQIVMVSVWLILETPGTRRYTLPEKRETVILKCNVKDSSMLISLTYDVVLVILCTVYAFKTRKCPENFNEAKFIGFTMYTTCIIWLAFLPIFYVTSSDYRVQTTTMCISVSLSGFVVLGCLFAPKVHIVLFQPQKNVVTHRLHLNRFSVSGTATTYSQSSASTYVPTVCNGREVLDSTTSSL
compound,measurement,setting,value
COc1ccc(C#Cc2ccc(C(=O)N3CC4CCC(=O)C4C3)cc2)cc1 (configuration not stated),IC50,[1],2050 nM
COc1ccc(NC(=O)c2ccc(OC(=S)N(C)c3ccc(OC)cc3)cc2)cc1,IC50,Beta-galactosidase,> 80 µM (inactive)
CN(C(=O)Cc1cccs1)c1nc2c(s1)CCCC2,IC50,[2],2.92 µM (active)
C=CCn1c(CCNC(=O)c2cccs2)nnc1SCC(=O)c1ccc(Cl)cc1,EC50,[3],1.53 nM (active)
same,EC50,[4],167 nM (active)
C[C@@H]1CCCCO[C@H](CN(C)C(=O)c2ccccc2)[C@H](C)CN([C@@H](C)CO)C(=O)c2cc(NC(=O)Nc3ccc(C(F)(F)F)cc3)ccc2O1,AC50,[5],19.9 µM (active)
same,AC50,Paired box protein Pax-8,6.57 µM (active)
same,AC50,[6],34.4 µM (active)
same,AC50,[7],64.1 µM (active)
Cc1cc2cc(CNC(=O)c3ccco3)ccc2n1C,IC50,Protein skinhead-1,73.3 µM (inactive)
same,AC50,cells [8],> 52 µM (inactive)
CN1C(=O)CSc2ccc(NC(=O)Nc3ccccn3)cc21,IC50,H9c2,49 µM (inactive)
same,EC50,[9],> 29.9 µM (inactive)
same,IC50,[10],5.8 µM (active)
same,IC50,[11],> 29.9 µM (inactive)
same,EC50,[12],> 29.9 µM (inactive)
CC1CC(=O)NN=C1c1ccc(N(C)C)c([N+](=O)[O-])c1 (configuration not stated),EC50,[13],149 nM (active)
same,IC50,Galanin receptor type 3,1.72 µM (active)
same,EC50,[14],> 112 µM (not active)
same,EC50,cells [15],> 29.9 µM (inactive)
N#Cc1ccc(N2CCC(C(=O)N(CC3CC3)c3ccc(Cl)cc3)CC2)nc1,IC50,[16],20.1 µM (inactive)
same,IC50,Vasopressin V1b receptor,25.7 µM (inactive)
same,IC50,Vasopressin V2 receptor,30.2 µM (inactive)
same,IC50,[17],800 nM (active)
CN(CC(=O)N1CCN(c2ccccn2)CC1)S(=O)(=O)c1ccc(Cl)cc1,EC50,[4],39.6 nM (active)
same,EC50,[18],357 nM (active)
O=C(Nc1ccc2c(c1)OCO2)c1cc(C2CCCCN2C(=O)OCCF)on1 (configuration not stated),AC50,Vero,31.8 µM (active)
